Eleven molecules from patent US20200216449A1, “4-Sulfur Substituted Podophyllotoxin Derivative and Preparation Method Therefor and Use Thereof” (priority 2017, published 2020) can be followed below.

One data set relates to HepG2. The data set can be described thus: MTT test for inhibition of tumor cells, HepG2. As to conditions: 48 h. Format: cell-based.
The next data set has as its system HeLa. The data set is described as follows: MTT test for inhibition of tumor cells, HeLa. Format: cell-based. As to conditions: 48 h. (Tetrazolium assays rely on reduction of a dye to a coloured formazan, in cell work by metabolically active cells.)
A further data set relates to HL-7702. The data set can be described thus: MTT test on human normal hepatocytes HL-7702. Format: cell-based. The conditions noted are these: human normal hepatocytes HL-7702, MTT, 48 h.
Another data set relates to A549. The data set can be described thus: IC50 against human lung cancer cell A549. Format: cell-based. The conditions noted are these: for antitumor activity on A549 compared with etoposide: vs etoposide.
The next data set relates to HMEC. The data set is described as follows: IC50 against human mammary epithelial cells HMEC. As to conditions: for toxicity on normal cell line HMEC compared with etoposide: vs etoposide.
The test system of a further data set is MRC-5. The data set can be described thus: IC50 against human embryonic lung cells MRC-5. As to conditions: for toxicity on normal cell line MRC-5 compared with etoposide: vs etoposide.
The next data set relates to H8. The data set is described as follows: IC50 against human cervical immortalized cells H8. The conditions noted are these: for toxicity on normal cell line H8 compared with etoposide: vs etoposide.
A further data set relates to MCF7. The data set is described as follows: IC50 against breast cancer cell MCF7. The format is cell-based, human. As to conditions: vs etoposide.

By IC50 is commonly meant the midpoint of a concentration-inhibition curve.

Description for HeLa: HepG2, HeLa cell lines and human normal liver cells HL-7702 in a logarithmic growth period were centrifuged at 1000 rpm for 5 min, and the supernatant was discarded, the cells were suspended with a suitable amount of culture medium to adjust the cell concentration to 3.5×10^4/well, the cells were seeded in 96-well plates, and the following experimental groups were set:
100 μl of DMSO was added to each well, followed by shaking on a shaker for 30 min at 37° C., the absorbance (OD) was measured at 492 nm, and the MTT ratio was calculated as the OD value of drug group/OD value of negative control group.

For the molecule `COc1cc([C@@H]2c3cc4c(cc3[C@@H](Sc3ccc5ccccc5c3)[C@H]3COC(=O)[C@H]23)OCO4)cc(OC)c1O` [Compound 20, 4β-S-(naphthalen-2)-4′-demethylepipodophyllotoxin], the IC50 with HepG2 was 6.02 ± 0.25 µM; in the data set with HeLa, 5.54 ± 0.3 µM; in the data set on HL-7702 it was 76.8 ± 2.11 µM.
`COc1cc(C2c3cc4c(cc3C(Sc3nc5cc(F)ccc5o3)C3COC(=O)C23)OCO4)cc(OC)c1OC` (stereo not drawn) [Compound 9, 4β-S-(5-Fluorobenzoxazol-2)-podophyllotoxin]: in the data set on HL-7702, the IC50 is > 1000 µM.
With `COc1cc([C@@H]2c3cc4c(cc3[C@@H](Sc3nc5ncccc5[nH]3)[C@H]3COC(=O)[C@H]23)OCO4)cc(OC)c1O` [Compound 22, 4β-S-(1H-imidazo[4,5-B]pyridin-2)-4′-demethylepipodophyllotoxin], the values for the 50% inhibitory concentration (IC50) in the data set on HepG2, in the data set with HeLa and in the data set with HL-7702 were 8.31 ± 0.43 µM, > 100 µM and 33.5 ± 3.25 µM, respectively.
In the case of `COc1cc([C@@H]2c3cc4c(cc3[C@@H](Sc3nc5cc(F)ccc5o3)[C@H]3COC(=O)[C@H]23)OCO4)cc(OC)c1O` [Compound 10, 4β-S-(5-fluorobenzoxazol-2)-4′-demethylepipodophyllotoxin], the IC50 with A549 (human lung cancer cell A549) was found to be 2.34 ± 0.16 µM; in the data set with HepG2, 1.55 ± 0.29 µM; in the data set with HeLa it was 1.49 ± 0.14 µM; with HMEC (read-out: IC50 HMEC, normal cell line, human mammary epithelial cells HMEC), 323.4 ± 3.21 µM; in the data set with MRC-5 (read-out: IC50 MRC-5, normal cell line, human embryonic lung cells MRC-5), 348.9 ± 3.1 µM; in the data set with HL-7702 it was 2000 ± 12.8 µM. The IC50 with H8 (read-out: IC50 H8, normal cell line, human cervical immortalized cells H8) worked out at 518.9 ± 1.9 µM. The “antitumor activity on A549 compared with etoposide” value in the data set on A549 was “significantly improved”. Moreover, the “toxicity on normal cell line HMEC compared with etoposide” value in the data set with HMEC is listed as “significantly lower”. Also, in the data set on MRC-5, the “toxicity on normal cell line MRC-5 compared with etoposide” value is on record as “significantly lower”. Further, the “toxicity on normal cell line H8 compared with etoposide” value in the data set on H8 was “significantly lower”. Moreover, the “antitumor activity on MCF7 compared with etoposide” value in the data set on MCF7 is reported as “significantly improved”.
Turning to “4β-S-(6-chlorobenzoxazol-2)-4′-demethylepipodophyllotoxin [Compound 16]”, the IC50 with HepG2 stood at 22.3 ± 1.46 µM; with HeLa, 32.3 ± 1.87 µM; in the data set on HL-7702, 68.3 ± 4.5 µM.
Turning to `COc1cc([C@@H]2c3cc4c(cc3[C@@H](Sc3nc5cc(F)ccc5s3)[C@H]3COC(=O)[C@H]23)OCO4)cc(OC)c1O` [Compound 8, 4β-S-(5-fluorobenzothiazol-2)-4′-demethylepipodophyllotoxin], the “antitumor activity on A549 compared with etoposide” value in the data set on A549 is “significantly improved”. For the same molecule, the IC50 with HepG2 was determined as 1.49 ± 0.12 µM; with HeLa it was 2.3 ± 0.12 µM; in the data set with HL-7702, 966.2 ± 7.31 µM. For the same molecule, the “toxicity on normal cell line HMEC compared with etoposide” value with HMEC is given as “significantly lower”. In the data set on MRC-5, the “toxicity on normal cell line MRC-5 compared with etoposide” value was “significantly lower”. Further, in the data set with H8, the “toxicity on normal cell line H8 compared with etoposide” value is listed as “significantly lower”. Moreover, the “antitumor activity on MCF7 compared with etoposide” value in the data set with MCF7 is “significantly improved”.
For `COc1cc([C@@H]2c3cc4c(cc3[C@@H](Sc3nnnn3-c3ccccc3)[C@H]3COC(=O)[C@H]23)OCO4)cc(OC)c1O` [Compound 24, 4β-S-(1-phenyltetrazol-5)-4′-demethylepipodophyllotoxin], the IC50 with HepG2 turned out to be 59.69 ± 0.31 µM; with HeLa, 9.73 ± 0.11 µM; in the data set with HL-7702, 71 ± 3.67 µM.
Consider `COc1cc([C@@H]2c3cc4c(cc3[C@@H](Sc3ccc(F)cc3)[C@H]3COC(=O)[C@H]23)OCO4)cc(OC)c1O` [Compound 6, 4β-S-(4-fluorobenzene-1)-4′-demethylepipodophyllotoxin], for which the IC50 in the data set with HepG2 was determined as 4.24 ± 0.97 µM; in the data set on HeLa, 55.28 ± 0.21 µM; in the data set with HL-7702, 51 ± 0.88 µM.
Regarding “4β-S-(3-phenyl-1,3,4-thiadiazol-2(3H)thione potassium salt-5)-4′-demethylepipodophyllotoxin [Compound 26]”, the IC50 turned out to be 5.7 ± 0.33 µM with HepG2 and 48.49 ± 0.38 µM in the data set with HeLa.
For “4β-S-(5-phenylbenzoxazol-2)-4′-demethylepipodophyllotoxin [Compound 12]”, the results for the IC50 in the data set on HepG2, in the data set with HeLa and in the data set with HL-7702 were 10.2 ± 0.46 µM, > 100 µM and 56.8 ± 1.32 µM, respectively.
Turning to `COc1cc(C2c3cc4c(cc3C(O)C3COC(=O)C23)OCO4)cc(OC)c1O` (centres unmarked) [4′-Demethylepipodophyllotoxin, 4′-demethylepipodophyllotoxin, reference compound], the IC50 in the data set on HepG2 stood at 49.32 ± 0.38 µM; in the data set on HeLa, 63.09 ± 0.49 µM; with HL-7702, 52.9 ± 0.85 µM.
